# Columns and labels:
# [1] = target: α-glucosidase from Saccharomyces cerevisiae; test: α-Glucosidase inhibitory assay; type: biochemical; details: Table 3; mean ± SEM (n = 3); NA: not active
# Procedure: α-Glucosidase inhibitory activity of the flavonoids was carried out according to the standard method with minor modification. […] A solution of 30 mM phosphate buffer (pH 6.5) was used to prepare stock solution of the sample to form a final concentration of 160 μg/mL. Then, 10 μL/well of sample was mixed with 15 μL/well of α-glucosidase from Saccharomyces cerevisiae (Megazyme, Ireland). 50 mM buffer (pH 6.5) was used to prepare the enzyme solution. Then, 115 μL/well of 30 mM buffer (pH 6.5) was added and incubated for 5 min at room temperature. Then, 75 μL/well of PNP-glucoside was added to initiate reaction and incubated at room temperature for 15 min. Finally, about 50 μL glycine at pH 10 was added to stop the reaction. The final volume of 250 μL of compound, positive control, enzyme, 30 mM buffer, and substrate was located in 96-well microplate. The absorbance (Abs) was measured using microplate reader (Tecan NanoQuant Infinite M200, Switzerland) at 405 nm to represent the amount of p-nitrophenol released from PNP-glucoside. […] The equation given below was used to calculate the inhibitory activity (%):(4) Inhibitory activity%=Abs control−Abs sample/Abs control×100%.
# Tested on yeast α-glycosidase, the reaction is initiated by reacting the inhibitor (sample) with the α-glycosidase enzyme that competes with […] for the binding site, thus releasing ρ-nitrophenol which was measured in the assay.
# [2] = DPPH radical scavenging assay; details: 30 min, 517 nm, mean ± SEM (n = 3)
# Procedure: Each sample's stock solution was diluted to final concentrations of 1000–0.4889 μg/mL in MeOH. A total of 1 mL of a 0.3 mM DPPH methanolic solution was added to 2.5 mL of sample solution of different concentrations and allowed to react at room temperature. After 30 min, the absorbance (Abs) values were measured at 517 nm with a microplate reader (Tecan NanoQuant Infinite M200, Switzerland) and converted into the percentage antioxidant activity using the following equation described previously: (1) % antioxidant activity=100−Abssample−Abssample blank/Abscontrol−Abscontrol blank×100. MeOH + compound solution was used as a blank, while DPPH solution plus MeOH was used as a negative control. The positive controls were DPPH solution plus 1 mM ascorbic acid. The IC50 values were calculated by linear regression of plots. The average percent of scavenging capacity was taken from three replicates.
# [3] = ABTS+ radical scavenging assay; details: 734 nm, mean ± SEM (n = 3)
# Procedure: An improved ABTS^+ radical decolorization assay was carried out involving direct production of the blue/green ABTS^+ chromophore through the reaction between ABTS and potassium persulfate. Addition of antioxidant to the preformed radical cation reduces it to ABTS to an extent on a time scale depending on the antioxidant activity, the concentration of the antioxidant, and the duration of the reaction. 1 ml ABTS was dissolved in water to make 7 mM concentration of the resultant solution. […] The resultant reaction mixture was allowed to stand in the dark at room temperature for 12–16 h before being used. The ABTS^+ radical solution was diluted with MeOH to an absorbance of 0.7 (±0.02) at 734 nm. Then, 100 μl of sample at various concentrations (1000–0.4889 μg/mL) was mixed with 100 μL of diluted ABTS^+ radical. Each concentration was analyzed in triplicate and the percentage decrease of absorbance at 734 nm with a microplate reader (Tecan NanoQuant Infinite M200, Switzerland) was calculated for each point and the antioxidant capacity of the tested compounds was expressed as percent inhibition (%). The radical scavenging activity of the compounds was measured according to the following equation [29]:(2) % inhibition=Acontrol−Asample/Acontrol×100. IC50 values were calculated by linear regression of plots, and the average percent of scavenging capacity was taken from three replicates. Trolox was used as a standard in comparison for the determination of the antioxidant activity of the flavonoids.
# [4] = Rapid screening of radical scavenging activity by dot blot assay (DPPH staining); details: silica sheet stained with DPPH in MeOH, dilutions from 1000 μg/mL
# Procedure: An aliquot (20 μL) of each dilution of each group was carefully loaded on a […] TLC plate and allowed to dry for 10 min. Drops of each sample were loaded in the order of decreased concentration along the 16 columns. The staining of the silica plate was based on the procedure of Soler-Rivas et al.. […] The intensity of the yellow color depends upon the amount and nature of radical scavenger present in the flavonoids.
# [5] = Ferric reducing antioxidant power (FRAP); details: for FRAP (AAE μg): ascorbic acid equivalent, mean ± SEM (n = 3), Table 2
# Procedure: This assay was based on the reduction of the ferric tripyridyltriazine (Fe III-TPTZ) complex to the ferrous ion (Fe II) at a low pH forming an intense blue color. In the FRAP assay, compounds that are rich in antioxidant effect exert their action by breaking the free radical chain by donating a hydrogen atom. Briefly, ferric reducing antioxidant power (FRAP) reagent (2.5 mL of a 10 mM TPTZ solution in 40 mM HCl, 2.5 mL of 20 mM FeCl3, and 25 mL of 0.1 M acetate buffer pH 3.6) was prepared and incubated for 10 min at 37°C. Then 20 μL of each compound and ascorbic acid (standard) and 40 μL of FRAP reagent were added to 140 μL of distilled water in a 96-well plate producing a blue-colored solution. The solutions were kept at room temperature for 20 min in the dark and then measured at 593 nm with a microplate reader (Tecan, Switzerland) using a reagent blank composed of 40 μL of FRAP reagents in 200 μL of distilled water. A calibration curve was prepared with a serial dilution of ascorbic acid (standard). The total antioxidant capacity was calculated by interpolating the measured absorbance of the calibration curve and expressed as ascorbic acid equivalents. The results were corrected for dilution and expressed as AAE μg of ascorbic acid/g.
# DPP-4 = target: T1, DPP-4 (Homo sapiens, UniProt P27487); test: Dipeptidyl peptidase IV (DPP-4) inhibitory assay; type: biochemical; details: Table 3; mean ± SEM (n = 3); NA: not active
# T1 construct: purchased Cayman (Michigan, USA)
# Procedure: Dipeptidyl peptidase (IV) inhibitors work by inhibiting the action of this enzyme, thereby prolonging the activity of incretins that play an important role in insulin secretion and blood glucose control regulation. DPP-4 inhibitory assay was performed as per the standard method (Cayman, USA). Firstly, 1 mg of sample was dissolved in 10% of DMSO and MeOH as the stock solution. For initial activity (100%), 10 μL of MeOH, 30 μL of diluted assay buffer, and 10 μL of diluted DPP-4 (Cayman, USA) were added to 96-well microplate. […] For background well, 10 μL of MeOH and 40 μL of diluted assay buffer were added. Then, 10 μL of prepared sample and 30 μL of diluted assay buffer were added with 10 μL of diluted DPP-4. After that, 50 μL of substrate solution was added to all wells to initiate the reaction and further incubated in the dark at 37°C for 30 min. Finally, plate was read at 360 nm of excitation wavelength and 465 nm of emission wavelength using fluorescence microplate reader (Perkin Elmer, Germany). All determinations were done in triplicate and half maximal concentration (IC50) values were calculated from the percentage of inhibition based on the linear regression analysis. The equation given below was applied to calculate the inhibitory activity (%):(5) Inhibitory activity%=Initial Activity−Sample/Initial Activity×100%.
# For DPP-4 inhibitory assay, the reaction is based on the cleavage of the peptide bond by DPP releasing the free Gly-Pro-aminomethylcoumarin group, a fluorogenic substrate resulting in fluorescence excitation and emission.
# [6] = target: T2, xanthine oxidase from buttermilk (Bos taurus, UniProt P80457); test: Xanthine oxidase inhibitory assay (XOI); type: biochemical
# T2 construct: 0.3 U/mL enzymes (xanthine oxidase from buttermilk); purchased Sigma-Aldrich (Singapore); host or cells: buttermilk (natural source)
# Procedure: XO catalyzes the oxidation of hypoxanthine to xanthine and subsequently to uric acid. The inhibition of XO reduces both vascular oxidative stress and circulating levels of uric acid. This assay is based on the fact that the superoxide anions are generated by the xanthine. The xanthine oxidase inhibitory activity was measured spectrophotometrically (Tecan NanoQuant Infinite M200, Switzerland) at 295 nm under aerobic condition with slight modification. The reaction mixture contained 50 mM phosphate buffer (pH 7.5), 0.15 mM xanthine (substrate), and 0.3 U/mL enzymes (xanthine oxidase from buttermilk). Samples were prepared by dissolving 1 mg in 5% DMSO in MeOH which gives sample concentration of 144.0 μg/mL in assay. […] The absorption increment at 295 nm indicates the formation of […] of uric acid/min at 25°C. […] All determination was done in triplicate and half maximal concentration (IC50) values were calculated from the percentage of inhibition. XO inhibition activity was expressed as the percentage inhibition of XO as follows:(3) % of inhibition=AbsA−B−C−D/AbsA−B×100, where A is the negative control with B as the blank of A which is without the enzyme and the sample while C is the activity of the sample with enzyme with D as the blank of the sample without enzyme.
# T1 sequence (P27487 whole entry): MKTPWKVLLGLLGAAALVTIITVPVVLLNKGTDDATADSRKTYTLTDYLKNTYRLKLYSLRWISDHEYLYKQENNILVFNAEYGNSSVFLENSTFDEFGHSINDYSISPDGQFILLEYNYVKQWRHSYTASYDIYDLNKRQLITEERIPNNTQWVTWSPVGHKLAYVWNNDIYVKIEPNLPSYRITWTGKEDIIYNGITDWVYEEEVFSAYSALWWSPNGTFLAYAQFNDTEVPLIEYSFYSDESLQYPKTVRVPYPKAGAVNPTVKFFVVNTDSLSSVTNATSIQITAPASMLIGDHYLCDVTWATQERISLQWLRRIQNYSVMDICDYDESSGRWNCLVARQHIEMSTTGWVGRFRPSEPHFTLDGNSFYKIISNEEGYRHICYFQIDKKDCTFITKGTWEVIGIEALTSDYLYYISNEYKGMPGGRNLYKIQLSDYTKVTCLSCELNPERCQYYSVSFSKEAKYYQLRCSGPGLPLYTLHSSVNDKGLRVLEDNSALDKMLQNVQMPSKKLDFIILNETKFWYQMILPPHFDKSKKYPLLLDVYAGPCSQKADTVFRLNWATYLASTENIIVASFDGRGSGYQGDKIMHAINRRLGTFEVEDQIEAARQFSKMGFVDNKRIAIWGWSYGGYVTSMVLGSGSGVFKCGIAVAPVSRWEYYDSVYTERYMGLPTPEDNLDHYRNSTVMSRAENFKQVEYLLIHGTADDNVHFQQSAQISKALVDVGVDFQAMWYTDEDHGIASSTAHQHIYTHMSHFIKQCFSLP
# T2 sequence (P80457 whole entry): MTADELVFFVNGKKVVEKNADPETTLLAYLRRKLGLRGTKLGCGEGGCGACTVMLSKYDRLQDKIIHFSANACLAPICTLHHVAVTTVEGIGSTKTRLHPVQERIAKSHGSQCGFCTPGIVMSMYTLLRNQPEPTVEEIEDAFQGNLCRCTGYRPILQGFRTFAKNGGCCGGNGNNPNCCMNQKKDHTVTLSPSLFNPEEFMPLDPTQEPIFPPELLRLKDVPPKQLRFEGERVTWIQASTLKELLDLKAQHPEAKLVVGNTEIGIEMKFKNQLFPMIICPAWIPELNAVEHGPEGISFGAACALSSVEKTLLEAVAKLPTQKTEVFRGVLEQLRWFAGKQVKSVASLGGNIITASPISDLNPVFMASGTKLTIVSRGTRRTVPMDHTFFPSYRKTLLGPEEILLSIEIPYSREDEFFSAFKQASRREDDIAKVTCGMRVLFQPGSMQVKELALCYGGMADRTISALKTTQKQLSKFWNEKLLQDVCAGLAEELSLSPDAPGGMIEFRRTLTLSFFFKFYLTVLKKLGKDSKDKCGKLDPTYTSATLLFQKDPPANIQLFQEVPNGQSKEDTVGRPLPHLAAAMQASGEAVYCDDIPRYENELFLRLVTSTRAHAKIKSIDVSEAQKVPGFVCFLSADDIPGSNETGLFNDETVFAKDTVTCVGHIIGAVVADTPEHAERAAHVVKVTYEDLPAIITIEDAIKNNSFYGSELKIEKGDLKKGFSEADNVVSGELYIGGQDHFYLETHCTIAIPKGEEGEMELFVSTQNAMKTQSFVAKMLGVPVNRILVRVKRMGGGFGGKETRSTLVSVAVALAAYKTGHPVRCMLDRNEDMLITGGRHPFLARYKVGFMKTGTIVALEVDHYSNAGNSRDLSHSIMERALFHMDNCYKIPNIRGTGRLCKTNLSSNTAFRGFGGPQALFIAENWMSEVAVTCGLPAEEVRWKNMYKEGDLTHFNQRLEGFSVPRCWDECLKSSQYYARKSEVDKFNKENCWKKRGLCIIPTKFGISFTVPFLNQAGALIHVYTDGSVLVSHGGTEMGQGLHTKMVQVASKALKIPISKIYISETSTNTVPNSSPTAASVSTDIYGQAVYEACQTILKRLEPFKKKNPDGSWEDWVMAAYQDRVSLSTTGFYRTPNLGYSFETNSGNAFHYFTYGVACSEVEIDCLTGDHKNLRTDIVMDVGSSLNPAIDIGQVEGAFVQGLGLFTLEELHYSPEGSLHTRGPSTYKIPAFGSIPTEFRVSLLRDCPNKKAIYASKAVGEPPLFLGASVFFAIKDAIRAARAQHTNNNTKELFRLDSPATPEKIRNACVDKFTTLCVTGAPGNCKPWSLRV
IC50 α-Glucosidase [1],IC50 DPPH [2],IC50 ABTS+ [3],IC50 ABTS+ ([3]; listed as wogonin),IC50 (DPP-4),xanthine oxidase inhibitory effect (in words) ([6]; discussion),"IC50 ([6]; xanthine oxidase inhibition, 295 nm, mean ± SEM (n = 3), NA: not active)",SMILES,radical scavenging activity by dot blot (intensity of yellow spots) [4],FRAP antioxidant capacity [5],FRAP (AAE μg) [5]
>100^A µg/mg,>100^B µg/ml,52.63 ± 2.99^D µg/ml,52.65 ± 2.99 µg/mL,> 352 µM,,,"COc1c(O)cc(O)c2c(=O)cc(-c3ccccc3)oc12 [Wogonin, 5,7-Dihydroxy-8-methoxyflavone]",intermediate radical scavenging activity,39.15 ± 1.68 AAE μg of ascorbic acid/g,39.15 ± 1.68^E AAE μg
>100^A µg/mg,35.61 ± 1.68^D µg/ml,1.24 ± 0.19^FG µg/ml,,> 370 µM,,,"O=c1cc(-c2ccccc2)oc2c(O)c(O)cc(O)c12 [Norwogonin, 5,7,8-Trihydroxyflavone]",intermediate radical scavenging activity,177.37 ± 1.82 AAE μg of ascorbic acid/g,152.14 ± 7.30^C AAE μg
>100^A µg/mg,>100^B µg/ml,>100^B µg/ml,,,low xanthine oxidase inhibitory activity,> 393 µM,"O=c1cc(-c2ccccc2)oc2cc(O)cc(O)c12 [Chrysin, 5,7-Dihydroxyflavone]",intermediate radical scavenging activity,21.38 ± 1.86 AAE μg of ascorbic acid/g,21.38 ± 1.86^F AAE μg
>100^A µg/mg,68.24 ± 3.70^C µg/ml,3.19 ± 0.15^F µg/ml,,> 373 µM,,,COc1ccc2c(=O)cc(-c3ccccc3)oc2c1O [8-Hydroxy-7-methoxyflavone],intermediate radical scavenging activity,104.92 ± 8.29 AAE μg of ascorbic acid/g,104.92 ± 8.29^D AAE μg
